Values after ≈ are worked out from the molar mass of the structure shown.
Key:
[1] = tested on: MRSA ATCC 43300; test: Post-antibiotic effect (PAE); format: cell-based, Staphylococcus aureus
Method: PAE has been considered as pharmacodynamic assistance which provides a reference for the rational formulation of dosing regimen. PAE refers to the temporary suppression of bacterial growth following transient antibiotic treatment. PAE assays were conducted for compounds 12c and 22c.
PAE is calculated from growth curves on the difference in time required for the number (1 log10 CFU/mL) of drug-exposed and unexposed microbes. […] The PAE values of compounds 12c and 22c increased with increasing incubation time.
PAE of compounds 12c and 22c on MRSA ATCC 43300 was determined using MH broth according to our previous work. The final concentration of MRSA was 1 × 10^6 CFU/mL by dilution with MH broth. Compounds 12c, 22c and tiamulin were supplemented in the suspension at a final concentration of 2 × MIC and 4 × MIC, respectively. The negative control group contained untreated MRSA bacterial cells. The test tubes were incubated with a 37 °C constant temperature vibration incubator for 1 and 2 h. After incubation, the test compound was removed from the sample by diluting 1000-fold with the preheated MH broth. Next, 100 μL of suspension from each culture was 10-fold diluted in sterile saline and inoculated on MH agar plates at 0, 2, 4, 6 and 8 h after inoculation. The number of colonies was calculated after incubation at 37 °C for 24 h. The experiments were performed in triplicate.

[2] = tested on: MRSA ATCC 43300; test: Constant concentration time–kill curves; format: cell-based, Staphylococcus aureus
Method: Time–kill kinetic assays were performed, which were used to investigate the in vitro bactericidal kinetic effect of compounds 12c, 19c, 22c and tiamulin.
Time–kill curve assays were established with the MIC value to investigate the antibacterial effect of constant drug concentration on MRSA. […] MRSA ATCC 43300 was incubated in MH broth at 37 °C for 4.5 h and diluted to 1 × 10^6 CFU/mL in MH broth. The saline control group was subjected to the same schedule but 0.9% saline water was added instead of the test compound. All the samples were incubated in an oscillating thermostatic at 37 °C, and then 100 μL of the mixture was extracted to 900 μL of sterile saline (0.9%) at 0, 3, 6, 9, 12 and 24 h, respectively. Samples were serially diluted 10-fold in sterile saline (0.9%) and inoculated onto agar plates. The colonies were counted after incubation at 37 °C for 24 h. Three independent experiments were performed according to our previous work. Time–kill curves were constructed by plotting the log10 CFU per millilitre versus time, and the change in bacterial concentration was determined.

[3] = tested on: RAW 264.7 cells; test: Cytotoxicity MTT assay; format: cell-based, mouse; conditions: 16 h
Method: The presence of compounds can influence cellular basic physiological processes, suppress proliferation and even reduce cell survival, etc. In the community, MRSA generally causes respiratory infection. Therefore, cytotoxicity was evaluated to explore the effect of compounds 12c and 22c on the viability of the respiratory tract cells 16-HBE (human bronchial epithelial cell line). RAW 264.7 (mouse peritoneal macrophage cell line) and Caco-2 (human epithelial colorectal adenocarcinoma cell line) were also used to evaluate the cytotoxicity of compounds 12c and 22c by MTT assay.
Cytotoxicity of the test compounds was assessed using the conventional MTT method. RAW 264.7 murine macrophage cells, Caco-2 cells and 16-HBE were used in this experiment. The cells were seeded into 96-well plates at a density of 1.0 × 10^5 cells per well. After 4 h at 37 °C, the cells were treated with compounds 12c and 22c at various concentrations and incubated at 37 °C for 16 h. Next, MTT (0.5 mg/mL in PBS, 100 μL/well) was added sequentially to each well in a humidified atmosphere of 95% air and 5% CO2 incubator and the incubation continued for an additional four hours. […] At the end of this period, the absorbance was measured at 490 nm by a microplate spectrophotometer (BIO-TEK Instruments, Winooski, VT, USA).

[4] = tested on: S. aureus 144; test: MIC/MBC by broth dilution (CLSI); format: cell-based; conditions: Staphylococcus aureus; S. aureus 144 (clinical strain)
Method in brief: (§1)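 CLSI broth dilution used twofold compound series from 64 to 0.0625 µg/mL (stocks in water with 2.5% DMSO and 2.5% Tween-80) and a final inoculum of 5 × 10^5 CFU/mL, in triplicate. For MBC, 25 µL from wells without visible growth was plated on MH agar and cultured 24 h at 37 °C.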

[5] = tested on: S. aureus ATCC 29213; test: MIC/MBC by broth dilution (CLSI); format: cell-based; conditions: Staphylococcus aureus, ATCC29213
Method in brief: as §1

[6] = tested on: S. aureus AD3; test: MIC/MBC by broth dilution (CLSI); format: cell-based; conditions: Staphylococcus aureus; S. aureus AD3 (clinical strain)
Method in brief: as §1

- MIC [4]: 0.5 µg/mL (≈ 0.666 µM)
- MIC ([5]; S. aureus ATCC 29213, broth dilution, 24 h, 37 °C): 0.25 µg/mL (≈ 0.333 µM)
- MIC [6]: 0.125 µg/mL (≈ 0.167 µM)
Structure (SMILES): C=C[C@]1(C)C[C@@H](OC(=O)CSc2ccc(Nc3nc(Cl)nc4c3cnn4-c3ccc(F)c(F)c3)cc2)[C@]2(C)[C@H](C)CC[C@]3(CCC(=O)[C@H]32)[C@@H](C)[C@@H]1O [Compound 22c, 22-[4-(6-Chloro-1-(3,4-difluorophenyl)-1H-pyrazolo[3,4-d]pyrimidine-4-yl)amino-Phenylsulfanyl]-22-deoxypleuromutilin]
- PAE ([1]; 2 × MIC, exposure for 1 h): 0.92 h
- PAE ([1]; 2 × MIC, exposure for 2 h): 2.18 h
- PAE ([1]; 4 × MIC, exposure for 1 h): 0.93 h
- PAE ([1]; 4 × MIC, exposure for 2 h): 2.68 h
- MRSA killed in time–kill assay ([2]; 2 × MIC, 24 h incubation): 99.99%
- reduction of MRSA in time–kill assay ([2]; 2 × MIC, 24 h incubation): −4.47 log10 CFU/mL
- reduction of MRSA in time–kill assay ([2]; 4 × MIC): −5.79 log10 CFU/mL
- type of bactericidal kinetics ([2]; time–kill curves, 1 to 32 × MIC): time-dependent
- effect on viability of RAW 264.7 cells ([3]; 8 µg/mL): slight inhibition
- effect on viability of RAW 264.7 cells ([3]; ≤8 μg/mL): no significant inhibition
- MBC [4]: 1 µg/mL (≈ 1.33 µM)
- MBC ([5]; S. aureus ATCC 29213): 0.5 µg/mL (≈ 0.666 µM)
- MBC [6]: 0.25 µg/mL (≈ 0.333 µM)
